What was measured:
AsfvPolX-DNA complex = AsfvPolX-DNA complex (African swine fever virus, UniProt P42494); assay: biochemical; type: binding
AsfvPolX = AsfvPolX (African swine fever virus, UniProt P42494); conditions: cited from earlier work
AsfvPolX, sequence (P42494 whole entry, looked up): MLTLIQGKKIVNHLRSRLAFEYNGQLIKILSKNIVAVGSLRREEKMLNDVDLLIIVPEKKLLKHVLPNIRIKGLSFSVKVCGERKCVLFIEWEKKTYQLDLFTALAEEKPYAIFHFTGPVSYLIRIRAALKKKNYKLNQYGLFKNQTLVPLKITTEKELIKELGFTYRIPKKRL

AsfvPolX-DNA complex, sequence (P42494 whole entry, looked up, one chain of several): as the sequence (P42494 whole entry, looked up) above

Compound | inhibition at 100 µM (AsfvPolX-DNA complex; read-out: Inhibition of AsfvPolX-DNA complex formation) [%] | Effect on AsfvPolX activity (AsfvPolX) | Inhibition of AsfvPolX-DNA complex formation (AsfvPolX-DNA complex; 100 µM) [%] | Inhibition of AsfvPolX activity (AsfvPolX; 100 µM) [%]
COc1cc(Nc2ncc(F)c(Nc3ccc4c(n3)N(COP(=O)(O)O)C(=O)C(C)(C)O4)n2)cc(OC)c1OC [fostamatinib] | 0 | dose-dependent decrease |  | 
pentagastrin |  |  | 0 | 60

Reference: PMC10995865 (Virus Research, 2024)
